Test results reported in publication PMC10850145, “Hormonal steroids induce multidrug resistance and stress response genes in Neisseria gonorrhoeae by binding to MtrR” (Nature Communications, 2024).

Experiments:
FA19 mtrD::kan (KH14) = tested on: FA19 mtrD::kan (KH14); design: method as in PMID 31744915; conditions: cited from earlier work
MtrR W136A = molecular target: T1, MtrR W136A (Neisseria gonorrhoeae, UniProt P39897, W136A); test: biochemical; assay type: binding
T1 construct: Hexa-histidine tag with TEV protease cleavage site (N, cleaved yes); made in house; host or cells: E. coli Rosetta Gami B(DE3) pLysS
T1 sequence (P39897 whole entry W136A): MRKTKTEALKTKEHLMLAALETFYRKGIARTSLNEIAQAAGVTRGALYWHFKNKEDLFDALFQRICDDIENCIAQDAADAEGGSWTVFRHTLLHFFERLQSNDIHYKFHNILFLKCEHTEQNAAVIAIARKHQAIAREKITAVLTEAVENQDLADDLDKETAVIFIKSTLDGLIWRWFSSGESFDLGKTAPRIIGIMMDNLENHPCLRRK

Structure (SMILES) | change of MIC by mutations of the mtrD gene (FA19 mtrD::kan (KH14)) | Kd (MtrR W136A)
CC(=O)[C@H]1CC[C@H]2[C@@H]3CCC4=CC(=O)CC[C@]4(C)[C@H]3CC[C@]12C [Progesterone, progesterone] | significant decrease | –
C[C@]12CC[C@H]3[C@@H](CCC4=CC(=O)CC[C@@]43C)[C@@H]1CC[C@@H]2O [Testosterone, testosterone] | – | 5.79 ± 1.4 µM
C[C@]12CC[C@@H]3c4ccc(O)cc4CC[C@H]3[C@@H]1CC[C@@H]2O [β-Estradiol, β-estradiol] | – | 1.06 ± 0.04 µM
